Data reported in publication PMC12279193 (Advanced Science, 2025).

Assays:
[1] = target: SARS-CoV S-trimer protein (Severe acute respiratory syndrome-related coronavirus, UniProt P59594); assay: biochemical; format: binding
[2] = target: MERS-CoV S-trimer protein (Betacoronavirus England 1, UniProt K9N5Q8); assay: biochemical; format: binding
Sequence of MERS-CoV S-trimer protein (K9N5Q8 18-1294 limits assumed): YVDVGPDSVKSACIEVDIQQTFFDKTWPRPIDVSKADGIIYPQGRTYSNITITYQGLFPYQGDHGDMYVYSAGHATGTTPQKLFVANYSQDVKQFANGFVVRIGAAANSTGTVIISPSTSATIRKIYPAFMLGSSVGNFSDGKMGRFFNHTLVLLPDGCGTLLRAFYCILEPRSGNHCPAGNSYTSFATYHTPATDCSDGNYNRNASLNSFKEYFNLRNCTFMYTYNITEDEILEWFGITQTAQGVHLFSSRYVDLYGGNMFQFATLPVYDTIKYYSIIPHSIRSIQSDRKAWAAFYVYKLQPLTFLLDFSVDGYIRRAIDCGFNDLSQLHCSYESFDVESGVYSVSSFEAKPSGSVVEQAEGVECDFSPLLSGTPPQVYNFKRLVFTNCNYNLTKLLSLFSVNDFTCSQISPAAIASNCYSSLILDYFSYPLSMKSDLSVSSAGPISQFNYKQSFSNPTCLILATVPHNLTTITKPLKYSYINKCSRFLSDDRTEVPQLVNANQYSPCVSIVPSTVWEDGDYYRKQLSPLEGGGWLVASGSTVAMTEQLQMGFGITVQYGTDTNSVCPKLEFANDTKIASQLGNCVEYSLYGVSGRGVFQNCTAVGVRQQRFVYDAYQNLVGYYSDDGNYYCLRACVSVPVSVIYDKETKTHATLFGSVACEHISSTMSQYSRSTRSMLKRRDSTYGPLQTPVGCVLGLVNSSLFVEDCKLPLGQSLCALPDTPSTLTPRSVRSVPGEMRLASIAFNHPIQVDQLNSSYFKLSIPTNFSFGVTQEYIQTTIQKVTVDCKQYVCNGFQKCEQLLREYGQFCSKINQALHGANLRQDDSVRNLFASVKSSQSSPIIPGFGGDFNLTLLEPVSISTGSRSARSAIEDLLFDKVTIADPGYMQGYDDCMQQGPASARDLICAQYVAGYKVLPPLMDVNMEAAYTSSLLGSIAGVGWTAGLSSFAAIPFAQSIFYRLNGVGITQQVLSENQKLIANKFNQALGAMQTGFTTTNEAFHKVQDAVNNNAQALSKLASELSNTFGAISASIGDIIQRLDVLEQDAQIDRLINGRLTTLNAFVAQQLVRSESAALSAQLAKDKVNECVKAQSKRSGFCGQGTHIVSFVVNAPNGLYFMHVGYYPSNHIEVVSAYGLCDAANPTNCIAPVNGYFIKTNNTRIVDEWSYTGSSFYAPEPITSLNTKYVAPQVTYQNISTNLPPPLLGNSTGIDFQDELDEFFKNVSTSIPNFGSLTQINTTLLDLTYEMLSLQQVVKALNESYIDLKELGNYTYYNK

CN(/N=C/c1ccccc1C(=O)O)c1nc(-c2ccccc2Cl)cs1 [S416]
Kd [1]: 27.2 µM
Kd [2]: 55.4 µM
